SMILES strings stand for the structures.

This experiment concerns the target T1, 5-hydroxytryptamine receptor 3A (Cavia porcellus, UniProt O70212).
T1 sequence (O70212 whole entry): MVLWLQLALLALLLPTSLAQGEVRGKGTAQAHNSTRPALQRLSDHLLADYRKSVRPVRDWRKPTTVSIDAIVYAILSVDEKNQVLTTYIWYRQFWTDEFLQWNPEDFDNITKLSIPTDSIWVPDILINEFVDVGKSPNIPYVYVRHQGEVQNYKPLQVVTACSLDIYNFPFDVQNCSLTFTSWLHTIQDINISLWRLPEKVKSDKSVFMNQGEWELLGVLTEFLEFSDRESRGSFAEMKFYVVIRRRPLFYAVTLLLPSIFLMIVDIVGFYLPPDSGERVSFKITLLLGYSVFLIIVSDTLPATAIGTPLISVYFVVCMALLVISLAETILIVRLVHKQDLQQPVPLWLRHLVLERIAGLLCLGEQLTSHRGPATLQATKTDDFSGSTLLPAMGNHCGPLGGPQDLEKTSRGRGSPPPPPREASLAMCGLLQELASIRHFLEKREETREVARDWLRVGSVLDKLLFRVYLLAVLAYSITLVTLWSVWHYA
As to the kind of experiment: Antagonist effect against 2-methyl-5-HT activity at 5-HT3 receptor in longitudinal muscle myenteric plexus from guinea pig ileum. The class given is functional, tissue-based. Conditions: read-out: pA2 (converted).
For `CCOc1nc2ccccc2nc1C(=O)Nc1ccc(O)c(CN2CCNCC2)c1`, the Kb is 398 µM.
With `COc1nc2ccccc2nc1C(=O)Nc1ccc(O)c(CN2CCOCC2)c1` the figure was 1000 µM; with `COc1nc2ccccc2nc1C(=O)Nc1ccc(O)c(CN2CCCC2)c1`, 126 µM; with `CCOc1nc2ccccc2nc1C(=O)Nc1cc(CN2CCNCC2)c(O)c(N2CCNCC2)c1`, > 1000 µM.
Next, `COc1nc2ccccc2nc1C(=O)Nc1ccc(O)c(CN2CCCCC2)c1`: 316 µM; `CCOc1nc2ccccc2nc1C(=O)Nc1cc(CN2CCCC2)c(O)c(N2CCCC2)c1`: > 1000 µM; `COc1nc2ccccc2nc1C(=O)Nc1cc(CN2CCN(C)CC2)c(O)c(N2CCN(C)CC2)c1`: 15.8 µM.
With `CCN1CCN(Cc2cc(NC(=O)c3nc4ccccc4nc3OC)cc(N3CCN(CC)CC3)c2O)CC1` the figure was 79.4 µM.
Turning to `COc1nc2ccccc2nc1C(=O)Nc1cc(CN2CCOCC2)c(O)c(N2CCOCC2)c1`, the Kb was > 1000 µM.
As to `COc1nc2ccccc2nc1C(=O)Nc1ccc(O)c(CN2CCNCC2)c1`, the Kb is 31.6 µM.
With `COc1nc2ccccc2nc1C(=O)Nc1ccc(O)c(CN2CCN(C)CC2)c1` the figure was 2 µM; with `CCOc1nc2ccccc2nc1C(=O)Nc1cc(CN2CCN(CC)CC2)c(O)c(N2CCN(CC)CC2)c1`, > 1000 µM; with `CCOc1nc2ccccc2nc1C(=O)Nc1cc(CN2CCN(C)CC2)c(O)c(N2CCN(C)CC2)c1`, > 1000 µM.
`CCOc1nc2ccccc2nc1C(=O)Nc1ccc(O)c(CN2CCCCC2)c1`: the Kb is 794 µM.
With `COc1nc2ccccc2nc1C(=O)Nc1cc(CN2CCNCC2)c(O)c(N2CCNCC2)c1`, the Kb was 100 µM.
As for `CCOc1nc2ccccc2nc1C(=O)Nc1ccc(O)c(CN2CCN(C)CC2)c1`, the Kb is 25.1 µM.
Take `CCOc1nc2ccccc2nc1C(=O)Nc1ccc(O)c(CN2CCN(CC)CC2)c1`: the Kb is 126 µM.
With `CCOc1nc2ccccc2nc1C(=O)Nc1cc(CN2CCOCC2)c(O)c(N2CCOCC2)c1` the figure was > 1000 µM; with `CCOc1nc2ccccc2nc1C(=O)Nc1ccc(O)c(CN2CCCC2)c1`, 316 µM.
For `CCOc1nc2ccccc2nc1C(=O)Nc1ccc(O)c(CN2CCOCC2)c1`, the Kb was > 1000 µM.
Next, `CCN1CCN(Cc2cc(NC(=O)c3nc4ccccc4nc3OC)ccc2O)CC1`: 12.6 µM.
With `COc1nc2ccccc2nc1C(=O)Nc1cc(CN2CCCC2)c(O)c(N2CCCC2)c1` the figure was > 1000 µM.
